Assay results from ChEMBL document CHEMBL5352465, “Small molecules containing chalcogen elements (S, Se, Te) as new warhead to fight neglected tropical diseases” (Eur J Med Chem, 2023).

Experiments:
[1] = test system: Leishmania infantum; experiment: Antileishmanial activity against Leishmania infantum promastigotes assessed as reduction in cell viability; type: functional, organism-based
[2] = test system: Leishmania major; experiment: Antileishmanial activity against Leishmania major promastigote assessed as inhibition of parasite growth; type: functional, organism-based
[3] = test system: Leishmania infantum; experiment: Antileishmanial activity against Leishmania infantum amastigotes assessed as inhibition of parasite growth; type: functional, organism-based
[4] = test system: Trypanosoma cruzi; experiment: Antitrypanosomal activity against Trypanosoma cruzi arequipa strain trypomastigotes assessed as parasite growth inhibition incubated for 48 hrs by resazurin staining based analysis; type: functional, organism-based
[5] = test system: Trypanosoma cruzi; experiment: Antitrypanosomal activity against Trypanosoma cruzi arequipa strain amastigotes assessed as parasite growth inhibition incubated for 48 hrs by resazurin staining based analysis; type: functional, organism-based
[6] = test system: Trypanosoma cruzi; experiment: Antitrypanosomal activity against Trypanosoma cruzi epimastigote assessed as parasite growth inhibition; type: functional, organism-based
[7] = Selectivity index, ratio of CC50 for cytotoxicity against mouse RAW264.7 cells to IC50 for antitrypanosomal activity against Trypanosoma cruzi epimastigote; type: toxicity, cell-based; details: read-out: Ratio CC50/IC50
[8] = test system: Trypanosoma cruzi; experiment: Antitrypanosomal activity against Trypanosoma cruzi amastigote assessed as parasite growth inhibition; type: functional, organism-based
[9] = test system: Trypanosoma cruzi; experiment: Antitrypanosomal activity against Trypanosoma cruzi epimastigote Dm28c strain assessed as parasite growth inhibition; type: functional, organism-based
[10] = Selectivity index, ratio of CC50 for cytotoxicity against mouse RAW264.7 cells to IC50 for antitrypanosomal activity against Trypanosoma cruzi amastigote; type: toxicity, cell-based; details: read-out: Ratio CC50/IC50
[11] = test system: Trypanosoma cruzi; experiment: Antitrypanosomal activity against bloodstream Trypanosoma cruzi NINOA strain trypomastigotes assessed as parasite growth inhibition incubated for 24 hrs by microscopic analysis; type: functional
[12] = Selectivity index, ratio of CC50 for mouse J774.A1 cells to ratio of IC50 for antitrypanosomal activity against bloodstream Trypanosoma cruzi NINOA strain trypomastigotes; type: toxicity; details: read-out: Ratio CC50/IC50
[13] = test system: Trypanosoma cruzi; experiment: Antitrypanosomal activity against bloodstream Trypanosoma cruzi INC-5 strain trypomastigotes assessed as parasite growth inhibition incubated for 24 hrs by microscopic analysis; type: functional
[14] = Selectivity index, ratio of CC50 for mouse J774.A1 cells to ratio of IC50 for antitrypanosomal activity against bloodstream Trypanosoma cruzi INC-5 strain trypomastigotes; type: toxicity; details: read-out: Ratio CC50/IC50
[15] = test system: Trypanosoma cruzi; experiment: Antitrypanosomal activity against bloodstream Trypanosoma cruzi Y strain trypomastigotes assessed as parasite growth inhibition incubated for 24 hrs by light microscopic analysis; type: functional, organism-based
[16] = test system: Trypanosoma cruzi; experiment: Antitrypanosomal activity against Trypanosoma cruzi arequipa strain epimastigotes assessed as parasite growth inhibition incubated for 48 hrs by resazurin staining based analysis; type: functional, organism-based
[17] = test system: Leishmania amazonensis; experiment: Antileishmanial activity against Leishmania amazonensis promastigotes assessed as inhibition of parasite growth; type: functional, organism-based
[18] = test system: Leishmania infantum; experiment: Antileishmanial activity against Leishmania infantum promastigotes assessed as inhibition of parasite growth; type: functional, organism-based
[19] = test system: Trypanosoma cruzi; experiment: Antitrypanosomal activity against Trypanosoma cruzi epimastigote Dm28c strain assessed as parasite growth inhibition incubated for 96 hrs by Neubauer chamber based light microscopic analysis; type: functional, organism-based
[20] = molecular target: Cruzipain (Trypanosoma cruzi) (UniProt P25779); experiment: Inhibition of Trypanosoma cruzi recombinant Cruzaine using Z-FR-AMC as substrate preincubated for 10 mins followed by substrate addition by fluorimeter analysis
Cruzipain (Trypanosoma cruzi), sequence (P25779 123-467 limits assumed): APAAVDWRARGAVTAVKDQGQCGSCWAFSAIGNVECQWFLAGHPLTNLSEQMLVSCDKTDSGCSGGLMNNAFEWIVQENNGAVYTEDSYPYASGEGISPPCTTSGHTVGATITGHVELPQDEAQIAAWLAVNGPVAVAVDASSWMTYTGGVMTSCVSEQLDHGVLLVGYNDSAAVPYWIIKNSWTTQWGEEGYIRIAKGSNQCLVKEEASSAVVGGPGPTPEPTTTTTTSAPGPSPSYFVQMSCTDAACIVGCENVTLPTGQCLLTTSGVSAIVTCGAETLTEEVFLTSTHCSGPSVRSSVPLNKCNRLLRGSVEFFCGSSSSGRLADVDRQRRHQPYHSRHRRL

[21] = Selectivity index, ratio of CC50 for human WI26VA4 cells to ratio of IC50 for antileishmanial activity against Leishmania infantum MHOM/BR/74/PP75 promastigote; type: toxicity; details: read-out: Ratio CC50/IC50
[22] = Selectivity index, ratio of CC50 for human WI26VA4 cells to ratio of IC50 for antileishmanial activity against Leishmania braziliensis MHOM/BR/75/M2903 promastigote; type: toxicity; details: read-out: Ratio CC50/IC50
[23] = test system: Leishmania braziliensis; experiment: Antileishmanial activity against Leishmania braziliensis MHOM/BR/75/M2903 strain promastigotes assessed as reduction in cell viability incubated for 48 hrs by MTT assay; type: functional, organism-based; details: MHOM/BR/75/M2903, 48 h
[24] = test system: Leishmania infantum; experiment: Antileishmanial activity against Leishmania infantum MHOM/BR/74/PP75 strain promastigotes assessed as reduction in cell viability incubated for 48 hrs by MTT assay; type: functional, organism-based; details: MHOM/BR/74/PP75, 48 h

## Cc1sc(N/N=C/c2ccccn2)nc1-c1ccc(Cl)c(Cl)c1
[1]
  IC50: 5.52 µM

## Oc1cccc(-c2nnc(-c3ccc4ncccc4c3)s2)c1O
[2]
  IC50: 0.04 µM

## O=P(Nc1ccc([Se][Se]c2ccc(NP(=O)(Oc3ccccc3)Oc3ccccc3)cc2)cc1)(Oc1ccccc1)Oc1ccccc1
[3]
  IC50: 14.3 µM

## O=C(Nc1ccc([Se][Se]c2ccc(NC(=O)c3ccc(C(F)(F)F)cc3)cc2)cc1)c1ccc(C(F)(F)F)cc1
[4]
  IC50: 2.4 µM
[5]
  IC50: 5.4 µM

## NC(=S)N/C=N/c1c(C(F)(F)F)nn(-c2ccccc2)c1-c1ccc([N+](=O)[O-])cc1
[6]
  IC50: 45.7 µM

## O=C(Nc1ccc([Se][Se]c2ccc(NC(=O)c3ccc([N+](=O)[O-])cc3)cc2)cc1)c1ccc([N+](=O)[O-])cc1
[4]
  IC50: 35.8 µM
[5]
  IC50: 49.3 µM

## COc1ccc(CC(=O)Nc2nnc(S(N)(=O)=O)s2)cc1
[7]
  selectivity ratio: 1
[8]
  IC50: 3.27 µM
[9]
  IC50: 6.69 µM
[10]
  selectivity ratio: 1

## NS(=O)(=O)c1ccc(NC(=O)Cc2ccccc2Br)c(F)c1
[7]
  selectivity ratio: 1
[8]
  IC50: 2.27 µM
[9]
  IC50: 5.66 µM
[10]
  selectivity ratio: 3

## Fc1cccc(F)c1CSc1nc2ccccc2s1
[11]
  LC50: 110 µM
[12]
  selectivity ratio: 4.48
[13]
  LC50: 260 µM
[14]
  selectivity ratio: 1.91

## NC(=S)N/C=N/c1c(C(F)(F)F)nn(-c2ccccc2)c1-c1ccc(Br)cc1
[6]
  IC50: 30.3 µM

## O=C1c2ccccc2C(=O)c2cc(C[Se][Se]Cc3ccc4c(c3)C(=O)c3ccccc3C4=O)ccc21
[3]
  IC50: 0.68 µM

## CC1(C)OC2=C(CC1[Se]c1cccs1)C(=O)C(=O)c1ccccc12 (stereo unspecified)
[15]
  IC50: 63.3 µM

## N#Cc1ccc(C[Se][Se]Cc2ccc(C#N)cc2)cc1
[4]
  IC50: 0.9 µM
[16]
  IC50: 1.3 µM
[5]
  IC50: 0.5 µM

## CC1=CC[C@@H](C(C)(C)NC(=S)NN)CC1
[17]
  IC50: 3 µM

## NS(=O)(=O)c1ccc(C[Te]c2ccc3ccccc3c2)cc1
[3]
  IC50: 5.83 µM

## NS(=O)(=O)c1ccc(NC(=[Se])NC(=O)c2ccccc2)cc1
[3]
  IC50: 5.23 µM

## NS(=O)(=O)c1ccc(NC(=O)Cc2ccc(Cl)cc2)c(F)c1
[7]
  selectivity ratio: 2
[8]
  IC50: 2.83 µM
[9]
  IC50: 3.54 µM
[10]
  selectivity ratio: 3

## Fc1ccc(CSc2nc3ccccc3s2)cc1
[11]
  LC50: > 350 µM
[13]
  LC50: > 350 µM

## O=C1C(=O)c2ccccc2C2=C1CC(C[Se]c1ccc(Cl)cc1)O2 (stereo unspecified)
[15]
  IC50: 58.3 µM

## Cc1ccc(S(=O)(=O)Nc2ccc([Se][Se]c3ccc(NS(=O)(=O)c4ccc(C)cc4)cc3)cc2)cc1
[4]
  IC50: 3.7 µM
[16]
  IC50: 5.1 µM
[5]
  IC50: 4.2 µM

## O=C(CSc1nc(-c2ccccc2)cc2cc(-c3ccccc3)nn12)N/N=C/c1ccccc1
[3]
  IC50: 5.85 µM
[18]
  IC50: 4.92 µM

## NS(=O)(=O)c1ccc(CCNC(=O)Cc2ccc(Br)cc2)cc1
[7]
  selectivity ratio: 0.44
[8]
  IC50: 3.51 µM
[9]
  IC50: 7.36 µM
[10]
  selectivity ratio: 0.44

## CCOP(=O)(Nc1ccc([Se][Se]c2ccc(NP(=O)(OCC)OCC)cc2)cc1)OCC
[3]
  IC50: 0.17 µM

## NC(=S)N/C=N/c1c(C(F)(F)F)nn(-c2ccccc2)c1-c1ccccc1
[6]
  IC50: 83.1 µM

## C/C(=N\Nc1nc(-c2ccc(F)cc2)cs1)c1ccccn1
[1]
  IC50: 0.42 µM

## C/C(=N\NC(N)=S)c1ccc(Cl)c(Cl)c1Cl
[19]
  IC50: 29 µM

## CN(C)c1ccc(/C=N/NC(N)=S)cc1
[20]
  inhibition: 70%

## O=C1NC(=O)/C(=C/c2cc(Cl)cc(Br)c2O)S1
[21]
  selectivity ratio: 0.74
[22]
  selectivity ratio: 0.55
[23]
  IC50: 48.2 µM
[24]
  IC50: 35.9 µM

## COP(=O)(Nc1ccc([Se][Se]c2ccc(NP(=O)(OC)OC)cc2)cc1)OC
[3]
  IC50: 0.33 µM

## O=C1NC(=O)/C(=C/c2cc(Cl)cc(Cl)c2Cl)S1
[21]
  selectivity ratio: 0.96
[22]
  selectivity ratio: 0.63
[23]
  IC50: 46.4 µM
[24]
  IC50: 30.4 µM

## CCOP(=S)(Nc1ccc([Se][Se]c2ccc(NP(=S)(OCC)OCC)cc2)cc1)OCC
[3]
  IC50: 0.79 µM

## NS(=O)(=O)c1ccc(NC(=[Se])NC(=O)c2ccc3c(c2)OCO3)cc1
[3]
  IC50: 5.28 µM

## Clc1ccc(CSc2nc3ccccc3s2)cc1
[11]
  LC50: > 350 µM
[13]
  LC50: 263 µM
[14]
  selectivity ratio: > 3.42

## CC1=CC[C@@H](C(C)(C)NC(=S)N/N=C/c2ccc([N+](=O)[O-])cc2)CC1
[17]
  IC50: 11.2 µM

## Oc1ccc(-c2nnc(-c3ccc4ncccc4c3)s2)c(O)c1
[2]
  IC50: 0.7 µM
